Measured values: patent US8466286B2, “SMMR (small molecule metabolite reporters) for use as in vivo glucose biosensors” (Cercacor Laboratories, Inc., priority 2003, dated 2013)
Like-named read-outs stand apart in the source and are kept apart here.

Tests used:
[1] = for response to glucose in vitro: addition of glucose
PHK cells = test: In-vitro detection in PHK cells loaded with reporter, two-photon fluorescent imaging; assay type: cell-based; conditions: 50 micromolar reporter; glucose increased to 300 mg/dl; EM 440 nm, 2P excitation 705 nm
Description: PHK cells were loaded with AF-327d reporter, at 50 micromolar concentration, in buffer. Fluorescence was measured using a two-photon fluorescent imaging system at approximately EM 440 nm, and excitation at (2P) 705 nm. Pictures taken 10 minutes apart show a slight change in fluorescence intensity upon increasing the glucose concentration to 300 mg/dl in the cell buffer medium. This is seen clearly, as a 20% decrease in time course of fluorescence.

[2] = Glucose response rate in stirred cuvette, pH 8 phosphate buffer; conditions: 100 μL of 300 mg/dL glucose in pH 8 buffer; ex 340 nm, em 440 nm; read every 15 seconds
Description: Arg-327 unprotected batches were prepared. One batch was supplied as a yellow powder and the other as a concentrated solution in deuterated methanol. A small sample of these materials was taken and dissolved in 3 ml of pH 8 phosphate buffer. The fluorescence of these materials was excited at 340 nm and the emission monitored at 440 nm. The fluorescence was monitored every 15 seconds in a stirred cuvette. After about 3 minutes 100 μL of 300 mg/dL glucose in pH 8 buffer was added. […] Similar results were obtained for both samples.

living cells = test: Membrane potential (Rh123 fluorescence quenching) to track D-glucose in living cells; assay type: cell-based; conditions: glucose 0 to 5 mg/dL (0.28 mM)
Description: The fluorescence quenching is an indication of membrane potential changes within living cells with respect to an increase in glucose concentration, as shown in FIG. 17 (glucose from 0 to 400 mg/dL) and FIG. 18 (glucose from 0 to 66 mg/dL).
The saturation point value was expected to be between 0.0 and 2 mg/dL.

[3] = glucose zero to 300 mg/dL, in vitro

Row | SMILES | increase of fluorescence intensity with glucose [1, 3] [%] | response to glucose in vitro [1] | further results
1 | O=C(Nc1ccc2oc(=O)c3ccccc3c2c1)c1ccc(B(O)O)cc1 [AF-345] | 30 |  | 
2 | O=C(/C=C/c1ccc(B(O)O)cc1)c1cc2ccccc2oc1=O [AF-343] |  | No fluorescence or glucose effect | 
3 | O=C(Nc1ccc2c(C(F)(F)F)cc(=O)oc2c1)c1ccc(B(O)O)cc1 [AF-327d] | 60 | stronger response to glucose than other published compounds | decrease in time course of fluorescence (PHK cells): 20%; glucose response rate (fluorescence after glucose addition) [2]: increased immediately; change of absorption spectrum at the excitation wavelength as a function of glucose concentration ([1]; excitation 375 nm): less than 10%; increase of fluorescence intensity with glucose ([1]; glucose range of 200 mg/dL, excitation 375 nm, emission 400-550 nm): at least 40%
4 | COC(=O)c1ccccc1-c1c2ccc(=N)cc-2oc2cc(N)ccc12.Cl [Rh123] |  |  | Rh123 fluorescence with increasing glucose levels (living cells): approximate linear decrease
5 | O=C(Nc1ccc([N+](=O)[O-])cc1)c1ccc(B(O)O)cc1 [AF-339] |  | weaker than AF-327 | 
